This passage reports Activity results from ChEMBL document CHEMBL4330132, “5-Keto-3-cyano-2,4-diaminothiophenes as selective maternal embryonic leucine zipper kinase inhibitors” (Bioorg Med Chem Lett, 2019).

Test [1] deals with Atypical kinase COQ8B, mitochondrial (Homo sapiens) (UniProt Q96D53). Put plainly: Binding affinity to wild-type human full length ADCK4 (M1 to S544 residues) expressed in bacterial expression system assessed as residual binding level at 1 uM by Kinomescan method relative to control.
In test [2] the target is Mitogen-activated protein kinase kinase kinase 5 (Homo sapiens) (UniProt Q99683). Put plainly: Binding affinity to wild-type human partial length ASK1 (E648 to S964 residues) expressed in bacterial expression system assessed as residual binding level at 1 uM by Kinomescan method relative to control.
In test [3] the target is Citron Rho-interacting kinase (Homo sapiens) (UniProt O14578). Briefly: Binding affinity to wild-type human partial length CIT (M68 to E432 residues) expressed in bacterial expression system assessed as residual binding level at 1 uM by Kinomescan method relative to control.
Test [4] has as its target Death-associated protein kinase 3 (Homo sapiens) (UniProt O43293). Put plainly: Binding affinity to wild-type human partial length DAPK3 (M1 to A277 residues) expressed in bacterial expression system assessed as residual binding level at 1 uM by Kinomescan method relative to control.
The target in test [5] is Serine/threonine-protein kinase DCLK1 (Homo sapiens) (UniProt O15075). Briefly: Binding affinity to wild-type human partial length DCAMKL1 (L270 to A662 residues) expressed in mammalian expression system assessed as residual binding level at 1 uM by Kinomescan method relative to control.
Test [6] concerns the target Receptor tyrosine-protein kinase erbB-3 (Homo sapiens) (UniProt P21860). Briefly: Binding affinity to wild-type human partial length ERBB3 (G684 to A987 residues) expressed in mammalian expression system assessed as residual binding level at 1 uM by Kinomescan method relative to control.
For test [7], the target named is Insulin-like growth factor 1 receptor (Homo sapiens) (UniProt P08069). Put plainly: Binding affinity to wild-type human partial length IGF1R (L972 to D1294 residues) expressed in bacterial expression system assessed as residual binding level at 1 uM by Kinomescan method relative to control.
Test [8] deals with Tyrosine-protein kinase JAK1 (Homo sapiens) (UniProt P23458). Briefly: Binding affinity to wild-type human partial length JAK1 JH1 catalytic domain (V856 to K1154 residues) expressed in bacterial expression system assessed as residual binding level at 1 uM by Kinomescan method relative to control.
Test [9] deals with Serine/threonine-protein kinase LATS2 (Homo sapiens) (UniProt Q9NRM7). Briefly: Binding affinity to wild-type human partial length LATS2 (Q641 to V1088 residues) expressed in mammalian expression system assessed as residual binding level at 1 uM by Kinomescan method relative to control.
For test [10], the target named is Mitogen-activated protein kinase kinase kinase 4 (Homo sapiens) (UniProt Q9Y6R4). Briefly: Binding affinity to wild-type human partial length MAP3K4 (G1319 to E1608 residues) expressed in bacterial expression system assessed as residual binding level at 1 uM by Kinomescan method relative to control.
The target in test [11] is Serine/threonine-protein kinase 26 (Homo sapiens) (UniProt Q9P289). Briefly: Binding affinity to wild-type human full length MST4 (M1 to P416 residues) expressed in mammalian expression system assessed as residual binding level at 1 uM by Kinomescan method relative to control.
Test [12] deals with Mitogen-activated protein kinase 13 (Homo sapiens) (UniProt O15264). Put plainly: Binding affinity to wild-type human full length p38-delta (M1 to L365 residues) expressed in bacterial expression system assessed as residual binding level at 1 uM by Kinomescan method relative to control.
Test [13] concerns the target Serine/threonine-protein kinase PAK 3 (Homo sapiens) (UniProt O75914). Briefly: Binding affinity to wild-type human full length PAK3 (M1 to R544 residues) expressed in bacterial expression system assessed as residual binding level at 1 uM by Kinomescan method relative to control.
Test [14] has as its target Calcium-dependent protein kinase 1 (Plasmodium falciparum) (UniProt P62344). Put plainly: Binding affinity to wild-type Plasmodium falciparum full length CDPK1 (M1 to S524 residues) expressed in mammalian expression system assessed as residual binding level at 1 uM by Kinomescan method relative to control.
The test system of test [15] is Phosphatidylinositol 4,5-bisphosphate 3-kinase catalytic subunit alpha isoform (Homo sapiens), P42336 [E542K]. Put plainly: Binding affinity to human partial length PIK3CA E542K mutant (R108 to N1068 residues) expressed in mammalian expression system assessed as residual binding level at 1 uM by Kinomescan method relative to control.
For test [16], the system named is Phosphatidylinositol 4,5-bisphosphate 3-kinase catalytic subunit alpha isoform (Homo sapiens), P42336 [H1047Y]. Briefly: Binding affinity to human partial length PIK3CA H1047Y mutant (R108 to N1068 residues) expressed in mammalian expression system assessed as residual binding level at 1 uM by Kinomescan method relative to control.
The target of test [17] is Serine/threonine-protein kinase PknB (Mycobacterium tuberculosis) (UniProt P9WI81). Put plainly: Binding affinity to wild-type Mycobacterium tuberculosis H37Rv partial length PKNB (M1 to G279 residues) expressed in mammalian expression system assessed as residual binding level at 1 uM by Kinomescan method relative to control.
Test [18] deals with Proto-oncogene tyrosine-protein kinase receptor Ret (Homo sapiens) (UniProt P07949). Put plainly: Binding affinity to wild-type human partial length RET (E713 to D1014 residues) expressed in bacterial expression system assessed as residual binding level at 1 uM by Kinomescan method relative to control.
Test [19] has as its target Ribosomal protein S6 kinase alpha-4 (Homo sapiens) (UniProt O75676). Briefly: Binding affinity to wild-type human partial length C-terminal RPS6KA4 kinase domain 2 (M375 to T705 residues) expressed in mammalian expression system assessed as residual binding level at 1 uM by Kinomescan method relative to control.
The target of test [20] is SRSF protein kinase 1 (Homo sapiens) (UniProt Q96SB4). Put plainly: Binding affinity to wild-type human full length SRPK1 (M1 to S655 residues) expressed in bacterial expression system assessed as residual binding level at 1 uM by Kinomescan method relative to control.
In test [21] the target is SRSF protein kinase 2 (Homo sapiens) (UniProt P78362). Briefly: Binding affinity to wild-type human full length SRPK2 (M1 to S686 residues) expressed in bacterial expression system assessed as residual binding level at 1 uM by Kinomescan method relative to control.
Test [22] has as its target STE20/SPS1-related proline-alanine-rich protein kinase (Homo sapiens) (UniProt Q9UEW8). Briefly: Binding affinity to wild-type human partial length STK39 (P43 to I357 residues) expressed in mammalian expression system assessed as residual binding level at 1 uM by Kinomescan method relative to control.
Test [23] concerns the target Serine/threonine-protein kinase VRK2 (Homo sapiens) (UniProt Q86Y07). Put plainly: Binding affinity to wild-type human partial length VRK2 (M1 to T336 residues) expressed in mammalian expression system assessed as residual binding level at 1 uM by Kinomescan method relative to control.
In test [24] the target is Serine/threonine-protein kinase 32A (Homo sapiens) (UniProt Q8WU08). Briefly: Binding affinity to wild-type human full length YANK1 (M1 to L396 residues) expressed in mammalian expression system assessed as residual binding level at 1 uM by Kinomescan method relative to control.

Serine/threonine-protein kinase 26 (Homo sapiens), sequence (Q9P289 2-416 limits assumed): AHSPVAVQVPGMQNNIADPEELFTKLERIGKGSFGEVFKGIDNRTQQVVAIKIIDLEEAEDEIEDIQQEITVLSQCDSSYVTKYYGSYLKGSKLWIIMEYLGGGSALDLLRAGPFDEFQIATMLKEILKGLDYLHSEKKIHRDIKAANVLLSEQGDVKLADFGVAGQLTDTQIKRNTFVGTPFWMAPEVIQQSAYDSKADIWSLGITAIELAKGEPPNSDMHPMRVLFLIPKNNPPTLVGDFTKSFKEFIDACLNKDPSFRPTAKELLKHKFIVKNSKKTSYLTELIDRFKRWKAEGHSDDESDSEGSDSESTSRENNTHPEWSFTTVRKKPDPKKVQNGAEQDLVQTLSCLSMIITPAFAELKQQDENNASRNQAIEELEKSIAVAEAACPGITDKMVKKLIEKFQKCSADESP
SRSF protein kinase 1 (Homo sapiens), sequence (Q96SB4 whole entry, the tested form may be a part): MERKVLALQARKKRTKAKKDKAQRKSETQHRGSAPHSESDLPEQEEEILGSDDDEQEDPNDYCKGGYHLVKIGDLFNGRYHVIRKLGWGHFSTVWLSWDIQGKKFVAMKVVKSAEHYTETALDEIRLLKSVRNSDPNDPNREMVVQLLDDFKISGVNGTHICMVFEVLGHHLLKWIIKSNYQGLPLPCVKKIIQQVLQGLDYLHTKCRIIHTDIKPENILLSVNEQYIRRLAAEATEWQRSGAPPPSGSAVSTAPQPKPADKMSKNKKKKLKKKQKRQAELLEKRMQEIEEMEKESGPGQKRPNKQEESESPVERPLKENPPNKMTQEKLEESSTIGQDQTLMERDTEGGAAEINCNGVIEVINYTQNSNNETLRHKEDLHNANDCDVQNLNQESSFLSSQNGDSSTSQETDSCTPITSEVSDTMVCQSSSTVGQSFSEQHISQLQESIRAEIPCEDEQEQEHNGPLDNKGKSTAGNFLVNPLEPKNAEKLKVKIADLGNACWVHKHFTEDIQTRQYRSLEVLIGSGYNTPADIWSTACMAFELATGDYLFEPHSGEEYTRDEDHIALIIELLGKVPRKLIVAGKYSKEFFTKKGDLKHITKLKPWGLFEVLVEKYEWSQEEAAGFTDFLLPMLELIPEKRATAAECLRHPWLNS
SRSF protein kinase 2 (Homo sapiens), sequence (P78362 whole entry, looked up, the tested form may be a part): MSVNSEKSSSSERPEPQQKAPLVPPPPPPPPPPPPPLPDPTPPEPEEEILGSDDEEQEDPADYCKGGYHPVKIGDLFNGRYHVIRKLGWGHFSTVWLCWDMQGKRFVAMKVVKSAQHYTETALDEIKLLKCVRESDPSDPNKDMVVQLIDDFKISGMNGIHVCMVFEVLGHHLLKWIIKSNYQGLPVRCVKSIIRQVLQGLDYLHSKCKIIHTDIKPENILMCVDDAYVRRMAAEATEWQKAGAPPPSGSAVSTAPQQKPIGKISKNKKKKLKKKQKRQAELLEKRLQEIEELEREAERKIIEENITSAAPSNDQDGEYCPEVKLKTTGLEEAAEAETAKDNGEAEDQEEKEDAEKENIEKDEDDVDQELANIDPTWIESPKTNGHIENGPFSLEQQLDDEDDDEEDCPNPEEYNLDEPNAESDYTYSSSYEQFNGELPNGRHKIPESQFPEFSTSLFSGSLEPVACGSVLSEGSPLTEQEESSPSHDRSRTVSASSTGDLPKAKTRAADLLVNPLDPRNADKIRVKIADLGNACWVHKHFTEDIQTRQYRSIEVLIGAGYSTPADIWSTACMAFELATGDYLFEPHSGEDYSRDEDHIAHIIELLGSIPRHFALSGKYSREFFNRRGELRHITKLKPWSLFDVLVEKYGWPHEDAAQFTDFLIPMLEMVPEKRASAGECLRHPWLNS
Ribosomal protein S6 kinase alpha-4 (Homo sapiens), sequence (O75676 whole entry, looked up, the tested form may be a part): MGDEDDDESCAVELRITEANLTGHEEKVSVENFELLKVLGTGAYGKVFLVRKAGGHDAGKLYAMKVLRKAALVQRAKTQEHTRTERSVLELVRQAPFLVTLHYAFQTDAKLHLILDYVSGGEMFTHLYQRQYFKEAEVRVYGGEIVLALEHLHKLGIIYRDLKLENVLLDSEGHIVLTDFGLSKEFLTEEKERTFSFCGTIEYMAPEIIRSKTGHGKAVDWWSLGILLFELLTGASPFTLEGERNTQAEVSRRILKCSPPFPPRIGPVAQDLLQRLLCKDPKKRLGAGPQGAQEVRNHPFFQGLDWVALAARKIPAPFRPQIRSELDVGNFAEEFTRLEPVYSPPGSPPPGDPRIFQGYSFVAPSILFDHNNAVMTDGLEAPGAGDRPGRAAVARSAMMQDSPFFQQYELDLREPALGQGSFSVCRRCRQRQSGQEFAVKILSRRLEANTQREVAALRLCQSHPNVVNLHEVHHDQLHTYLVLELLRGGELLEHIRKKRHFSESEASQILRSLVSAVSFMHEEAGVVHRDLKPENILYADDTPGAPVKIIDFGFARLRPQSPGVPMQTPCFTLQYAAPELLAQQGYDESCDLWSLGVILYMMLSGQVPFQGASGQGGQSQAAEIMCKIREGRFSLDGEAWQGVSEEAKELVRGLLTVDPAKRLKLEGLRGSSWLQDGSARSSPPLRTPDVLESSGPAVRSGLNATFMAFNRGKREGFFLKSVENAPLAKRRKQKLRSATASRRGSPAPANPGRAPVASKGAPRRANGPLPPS
Receptor tyrosine-protein kinase erbB-3 (Homo sapiens), sequence (P21860 whole entry, the tested form may be a part): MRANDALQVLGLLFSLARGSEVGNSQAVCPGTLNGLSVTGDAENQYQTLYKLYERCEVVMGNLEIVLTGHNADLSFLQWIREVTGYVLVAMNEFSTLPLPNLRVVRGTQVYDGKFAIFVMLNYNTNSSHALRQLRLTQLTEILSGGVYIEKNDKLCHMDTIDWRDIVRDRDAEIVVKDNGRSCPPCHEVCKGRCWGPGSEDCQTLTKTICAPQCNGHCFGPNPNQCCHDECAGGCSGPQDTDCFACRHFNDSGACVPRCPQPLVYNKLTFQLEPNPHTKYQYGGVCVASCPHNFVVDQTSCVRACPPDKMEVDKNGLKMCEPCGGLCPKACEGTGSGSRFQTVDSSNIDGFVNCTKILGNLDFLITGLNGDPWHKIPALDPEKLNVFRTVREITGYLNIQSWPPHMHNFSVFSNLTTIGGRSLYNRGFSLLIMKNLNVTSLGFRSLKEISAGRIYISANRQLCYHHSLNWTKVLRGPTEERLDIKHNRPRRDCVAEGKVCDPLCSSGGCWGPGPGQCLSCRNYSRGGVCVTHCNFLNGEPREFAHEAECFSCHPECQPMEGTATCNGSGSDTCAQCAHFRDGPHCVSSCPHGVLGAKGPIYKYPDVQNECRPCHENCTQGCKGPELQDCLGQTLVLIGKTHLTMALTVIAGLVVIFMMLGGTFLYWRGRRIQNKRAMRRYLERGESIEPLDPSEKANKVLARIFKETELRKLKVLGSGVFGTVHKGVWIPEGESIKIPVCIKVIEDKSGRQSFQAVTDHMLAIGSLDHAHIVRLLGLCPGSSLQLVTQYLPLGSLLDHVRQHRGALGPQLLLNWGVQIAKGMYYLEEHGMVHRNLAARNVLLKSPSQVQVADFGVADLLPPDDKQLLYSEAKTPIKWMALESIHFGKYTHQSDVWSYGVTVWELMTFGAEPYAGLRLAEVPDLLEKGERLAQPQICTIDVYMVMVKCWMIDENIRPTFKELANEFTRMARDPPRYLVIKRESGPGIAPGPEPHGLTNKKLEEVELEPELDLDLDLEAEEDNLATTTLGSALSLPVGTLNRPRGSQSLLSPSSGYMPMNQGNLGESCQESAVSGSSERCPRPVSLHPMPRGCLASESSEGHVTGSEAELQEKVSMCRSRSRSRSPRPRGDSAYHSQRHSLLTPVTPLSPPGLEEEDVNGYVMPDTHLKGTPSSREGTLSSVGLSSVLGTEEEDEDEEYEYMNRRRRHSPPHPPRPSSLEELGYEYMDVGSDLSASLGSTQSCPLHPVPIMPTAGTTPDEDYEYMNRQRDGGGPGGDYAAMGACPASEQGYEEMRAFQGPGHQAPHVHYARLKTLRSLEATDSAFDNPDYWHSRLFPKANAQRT
Atypical kinase COQ8B, mitochondrial (Homo sapiens), sequence (Q96D53 whole entry, the tested form may be a part): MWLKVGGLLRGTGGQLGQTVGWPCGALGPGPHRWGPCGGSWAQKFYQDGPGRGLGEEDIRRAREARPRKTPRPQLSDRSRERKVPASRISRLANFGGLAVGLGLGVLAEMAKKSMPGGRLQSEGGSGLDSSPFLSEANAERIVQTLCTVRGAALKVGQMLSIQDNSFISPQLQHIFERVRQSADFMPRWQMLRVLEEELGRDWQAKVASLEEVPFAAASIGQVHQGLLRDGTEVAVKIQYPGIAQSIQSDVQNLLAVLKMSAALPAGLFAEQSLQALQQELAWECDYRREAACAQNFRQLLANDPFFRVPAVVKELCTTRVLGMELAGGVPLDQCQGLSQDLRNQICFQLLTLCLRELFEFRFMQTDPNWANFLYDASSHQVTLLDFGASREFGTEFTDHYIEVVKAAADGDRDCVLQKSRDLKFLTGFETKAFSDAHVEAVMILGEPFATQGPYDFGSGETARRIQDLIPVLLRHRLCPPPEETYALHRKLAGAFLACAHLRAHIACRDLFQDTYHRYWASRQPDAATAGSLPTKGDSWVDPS
Serine/threonine-protein kinase VRK2 (Homo sapiens), sequence (Q86Y07 whole entry, the tested form may be a part): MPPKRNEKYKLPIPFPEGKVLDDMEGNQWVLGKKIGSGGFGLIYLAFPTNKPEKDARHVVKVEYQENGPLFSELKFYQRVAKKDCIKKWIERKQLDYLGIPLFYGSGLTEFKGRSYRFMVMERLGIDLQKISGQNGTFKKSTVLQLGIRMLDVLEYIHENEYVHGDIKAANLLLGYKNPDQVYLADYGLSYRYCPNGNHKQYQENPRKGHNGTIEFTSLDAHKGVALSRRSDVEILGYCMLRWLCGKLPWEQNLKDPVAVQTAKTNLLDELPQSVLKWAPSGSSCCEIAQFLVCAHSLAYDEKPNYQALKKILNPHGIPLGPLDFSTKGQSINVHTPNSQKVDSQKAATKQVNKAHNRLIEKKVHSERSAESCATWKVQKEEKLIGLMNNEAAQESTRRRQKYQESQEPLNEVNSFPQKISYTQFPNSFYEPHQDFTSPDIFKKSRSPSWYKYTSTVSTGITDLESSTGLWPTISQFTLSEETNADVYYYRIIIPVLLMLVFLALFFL

`CC(C)Nc1sc(C(=O)c2ccc(Cl)s2)c(N)c1C#N`: the Activity was 100% in test [1]; 100% in [2]; 72% in test [3]; 74% in test [4]; 100% in test [5]; 75% in test [6]. Besides, the Activity in test [7] was 90%; in test [8], 100%; in test [9], 100%; in test [10], 100%; in test [11], 100%; in test [12] it was 100%. In addition, the Activity in test [13] was 95%; in [14], 67%; in [15] it was 77%; in [16], 100%; in [17], 95%; in test [18], 97%. For the same compound, the Activity in [19] worked out at 79%; in test [20], 100%; in [21] it was 93%; in test [22], 72%; in test [23] it was 100%; in test [24], 98%.
